Source: patent US10683310B2, “Compound for specifically binding to amyloid β-protein” (NEUBORON MEDTECH LTD., priority 2015, dated 2020)

How the values were obtained:
[1] = test system: amyloid β-protein deposition plaques; experiment: Micro-PET scan of brain uptake in SAMP8 model mice and control mice; assay type: in vivo; details: for Cerebral cortex uptake of radiopharmaceuticals, Model mice / hippocampus uptake of radiopharmaceuticals, Model mice: SAMP8 model mice; for Cerebral cortex uptake of radiopharmaceuticals, Control mice / hippocampus uptake of radiopharmaceuticals, Control mice: normal control mice
Method: SAMP8 (senescence accelerated mouse prone 8) mice are the most common animal model of AD (Alzheimer's disease), in its brain there are a large number of amyloid deposition plaque. In this example, SAMP8 mice were used as model mice, and the normal mice were used as the control mice. Both the model mice and the control mice were 10 months old. The two mice were injected with 6-borono-2-(4-methylaminophenyl)benzothiazole containing labeling, and the Micro-PET scan is used to study whether 6-borono-2-(4-methylaminophenyl)benzothiazole and amyloid β-protein have specific binding properties. Model mice and control mice weighing 31.5±0.3 g were selected, 31.0±0.6 μCi of ^11C labelled 6-borono-2-(4-methylaminophenyl)benzothiazole were injected thereto, and Micro-PET of Model INVEON from Siemens were used for scan, where the scanning window was 350-650 KeV.
It is well known to those skilled in the art that the major cause of Alzheimer's disease is that the amyloid β-protein deposition plaques accumulate in the cerebral cortex and hippocampus of the brain. In this example, Micro-PET scanned and compared the brains of the model and control mice using PMOD software. And the absorption of radioactive 6-borono-2-(4-methylaminophenyl)benzothiazole in the cerebral cortex and hippocampus of SAMP8 model mice and control mice was determined, to further illustrate that the compound is capable of specifically binding to amyloid β-protein deposition plaques.

[2] = stability in vitro of 11C-labeled compound determined by HPLC; assay type: physicochemical
Method: The stability of IIC-labeled 6-borono-2-(4-methylaminophenyl)benzothiazole in vitro was determined by HPLC, at selected time of 30 min and 60 min. […] Therefore, the radioactive chemical purity of the IIC-labeled radioactive compound met the experimental requirements.

SMILES: CNc1ccc(-c2nc3ccc(B(O)O)cc3s2)cc1 [6-borono-2-(4-methylaminophenyl)benzothiazole]
- Cerebral cortex uptake Ratio (model mice/control mice) ([1]; 5 min after injection): 1.9
- hippocampus uptake Ratio (model mice/control mice) ([1]; 5 min after injection): 1.9
- Cerebral cortex uptake Ratio (model mice/control mice) ([1]; 15 min after injection): 1.9
- hippocampus uptake Ratio (model mice/control mice) ([1]; 15 min after injection): 2.3
- Cerebral cortex uptake Ratio (model mice/control mice) ([1]; 25 min after injection): 2.4
- hippocampus uptake Ratio (model mice/control mice) ([1]; 25 min after injection): 3.2
- Cerebral cortex uptake Ratio (model mice/control mice) ([1]; 35 min after injection): 2.7
- hippocampus uptake Ratio (model mice/control mice) ([1]; 35 min after injection): 3.2
- Cerebral cortex uptake of radiopharmaceuticals, Model mice ([1]; 5 min after injection): 3.03 % ID/g
- hippocampus uptake of radiopharmaceuticals, Model mice ([1]; 5 min after injection): 3.44 % ID/g
- Cerebral cortex uptake of radiopharmaceuticals, Model mice ([1]; 15 min after injection): 2.88 % ID/g
- hippocampus uptake of radiopharmaceuticals, Model mice ([1]; 15 min after injection): 3.50 % ID/g
- Cerebral cortex uptake of radiopharmaceuticals, Model mice ([1]; 25 min after injection): 2.79 % ID/g
- hippocampus uptake of radiopharmaceuticals, Model mice ([1]; 25 min after injection): 3.45 % ID/g
- Cerebral cortex uptake of radiopharmaceuticals, Model mice ([1]; 35 min after injection): 2.68 % ID/g
- hippocampus uptake of radiopharmaceuticals, Model mice ([1]; 35 min after injection): 3.27 % ID/g
- brain radiopharmaceutical absorption (PET image) ([1]; SAMP8 model mouse versus control mice, 30 min after injection, FIGS. 5A and 5B): accumulated a large amount of radiopharmaceuticals relative to the brain of the control mice
- Cerebral cortex uptake of radiopharmaceuticals, Control mice ([1]; 5 min after injection): 1.61 % ID/g
- hippocampus uptake of radiopharmaceuticals, Control mice ([1]; 5 min after injection): 1.80 % ID/g
- Cerebral cortex uptake of radiopharmaceuticals, Control mice ([1]; 15 min after injection): 1.48 % ID/g
- hippocampus uptake of radiopharmaceuticals, Control mice ([1]; 15 min after injection): 1.49 % ID/g
- Cerebral cortex uptake of radiopharmaceuticals, Control mice ([1]; 25 min after injection): 1.17 % ID/g
- hippocampus uptake of radiopharmaceuticals, Control mice ([1]; 25 min after injection): 1.09 % ID/g
- Cerebral cortex uptake of radiopharmaceuticals, Control mice ([1]; 35 min after injection): 0.99 % ID/g
- hippocampus uptake of radiopharmaceuticals, Control mice ([1]; 35 min after injection): 1.01 % ID/g
- radioactive chemical purity (stability in vitro) ([2]; 30 min): 100%
- radioactive chemical purity (stability in vitro) ([2]; 60 min): 100%
